Here are results for one compound from patent US20240196889A1, “USE OF DI- AND TRI[…] ACIDS IN THE PREVENTION OF BIOFILM FORMATION” (priority 2020, published 2024).

In test [1] the test system is S. Typhimurium ATCC 14028. Briefly: Petri dish biofilm assay (CFU). It counts as cell-based, Salmonella enterica serovar Typhimurium. Particulars: 100 μM, 48 h, 25° C. As for the experimental part:
ONCs of S. Typhimurium ATCC 14028 were normalized to an OD595 of 3.2 and diluted 1/100 in a small (60 mm Ø) glass Petri dishes containing 10 ml of 1/20 TSB to which a final concentration of 100 μM agaric or the corresponding amount of DMSO was added. Around 12*10^7 ml^−1 cells were inoculated and incubated under static conditions at 25° C. for 48 h. Afterwards, the liquid above the biofilms was poured off and the biofilms were scraped off the bottom of the plate in 1 ml of PBS, passed through a syringe (25 G) and vortexed to break down the biofilm structure and ensure an homogenous suspension during dilution [Hermans et al. (2011). Journal of microbiological methods 84, 467-478]. The number of colony forming units (CFU) of biofilms was determined by plating.

For test [2], the system named is Salmonella. Briefly: Soft agar swimming assay. Format: cell-based, Salmonella enterica serovar Typhimurium. The following applies: 100 μM, 0.25% agar, 24 h, 25° C. How it is done: Based on Kim & Surette (2003) Biol Proced Online 5, 189-196, swimming plates were made by mixing 30 ml TSB 1/20 with 0.25% agar. These plates contained either a final concentration of 100 μM agaric or the corresponding amount of DMSO. After 2 h drying at room temperature, 3 μl of an overnight culture was inoculated by piercing the surface of the agar with the pipette tip. The plates were incubated upright for 24 h at 25° C., afterwards the size of the halo was measured and visually recorded.

Test [3] deals with E. coli TG1. Briefly: Antibiofilm assay (Calgary biofilm device). It counts as cell-based, Escherichia coli. How it is done:
A static peg assay for the prevention of bacterial biofilm formation was used as described previously. A lid carrying 96 polystyrene pegs was fitted into a microtiter plate with a peg hanging into each well. Two-fold serial dilutions of the compounds in 100 μl liquid broth per well were prepared in the microtiter plate. Subsequently, an overnight culture was diluted 1:100 into the respective liquid broth, and 100 μl (˜10^6 cells) was added to each well of the microtiter plate, resulting in a total amount of 200 μl medium per well. After placing the lid on the microtiter plate, samples containing Salmonella, Pseudomonas or E. coli were incubated statically in TSB 1/20 for 48 h at 25° C., whereas S. aureus was incubated in undiluted TSB at 37° C. for 48 h. After incubation, the lid was removed from the microtiter plate and liquid culture was transferred to a new microtiter plate prior to determining the prior to determining the planktonic growth in each well via OD600 measurements using a Synergy MX multimode reader (Biotek, Winooski, VT). The pegs were washed once in 200 μl PBS and the remaining attached bacteria were stained for 30 min with 200 μl 0.1% crystal violet in an isopropanol-methanol-PBS solution (1:1:18). […] The OD570 of each well was measured using a Synergy MX multimode reader. Data was analysed using the GraphPad Prism 6 software.

Test [4] deals with P. aeruginosa PA14. Briefly: Antibiofilm assay (Calgary biofilm device). Format: cell-based, Pseudomonas aeruginosa. How it is done: (§1) A static peg assay for the prevention of bacterial biofilm formation was used as described previously. A lid carrying 96 polystyrene pegs was fitted into a microtiter plate with a peg hanging into each well. Two-fold serial dilutions of the compounds in 100 μl liquid broth per well were prepared in the microtiter plate. Subsequently, an overnight culture was diluted 1:100 into the respective liquid broth, and 100 μl (˜10^6 cells) was added to each well of the microtiter plate, resulting in a total amount of 200 μl medium per well. After placing the lid on the microtiter plate, samples containing Salmonella, Pseudomonas or E. coli were incubated statically in TSB 1/20 for 48 h at 25° C., whereas S. aureus was incubated in undiluted TSB at 37° C. for 48 h. After incubation, the lid was removed from the microtiter plate and liquid culture was transferred to a new microtiter plate prior to determining the prior to determining the planktonic growth in each well via OD600 measurements using a Synergy MX multimode reader (Biotek, Winooski, VT). The pegs were washed once in 200 μl PBS and the remaining attached bacteria were stained for 30 min with 200 μl 0.1% crystal violet in an isopropanol-methanol-PBS solution (1:1:18). Excess stain was washed off by placing the pegs in a 96-well plate filled with 200 μl distilled water per well. Afterwards, the pegs were air dried for 30 min and the dye bound to the adherent cells dissolved into 200 μl 30% glacial acetic acid. The OD570 of each well was measured using a Synergy MX multimode reader. Data was analysed using the GraphPad Prism 6 software.

The subject of test [5] is S. aureus SH1000. The test can be described thus: Antibiofilm assay (Calgary biofilm device). Format: cell-based, Staphylococcus aureus. How it is done:
as §1

In test [6] the test system is S. Typhimurium SL1344 (S1), S. Typhimurium ATCC14028 (S2) and E. coli MG1655 (E1). Briefly: Mixed-species biofilm assay (CFU). Format: cell-based, Salmonella Typhimurium and E. coli. From the text: In situ, biofilms are typically complex communities consisting of various bacterial strains and species [Elias & Banin (2012) FEMS Microbiol Rev 36, 990-1004; Burmølle et al. (2014) Trends Microbiol 22, 84-91; Giaouris et al. (2015) Front Microbiol 6, Article 841; Mitri & Richard Foster (2013) Communities. Annual Review of Genetics 47, 247-273]. […] Microbial ecology 68, 146-154]. Hereto, a a previously characterized model community was utilized consisting of two Salmonella and one E. coli strain (S. Typhimurium SL1344 (S1), S. Typhimurium ATCC14028 (S2) and E. coli MG1655 (E1)). […] The reduced biofilm productivity of the mixed-species community is mainly due to the inhibition of the S2 strain (FIG. 6B). The lack of […] inhibition in mixed-species conditions is possibly due to agaric acid weakening the competitive interactions experienced by S1 (FIG. 6C). […] Consequently, […] detected the damage imposed by competition via its stress response systems and induces a competitive response. […] Therefore, it was subsequently explored whether agaric acid can interfere with the increased tolerance in mixed-species conditions by weakening the competition and preventing the induction of this competitive response.
ONCs of S1, S2 and E1 were normalized to an OD595 of 3.2 and added to a small (60 mm Ø) glass Petri dishes containing 10 ml of 1/20 TSB. The three strain were inoculated in a 1:1:1 ratio and incubated under static conditions at 25° C. for 48 h. The same total number of cells was inoculated in mono- and mixed-species conditions (˜12*10^7 cells ml^−1). Afterwards, the liquid above the biofilms was poured off and the biofilms were scraped off the bottom of the plate in 1 ml of PBS, passed through a syringe (25 G) and vortexed to break down the biofilm structure and ensure an homogenous suspension during dilution. The number of colony forming units (CFU) of biofilms was determined by plating. To differentiate between the strains, S1 was labelled with constitutive gfpmut3 on a plasmid, while S2 and E1 were labelled with plasmid-encoded constitutive dsRed.T4. […]

Test [7] concerns S. Typhimurium SL1344 (S1) in mixed-species biofilm with S2 and E1. The test can be described thus: Mixed-species tolerance assay (CFU). It counts as cell-based, Salmonella Typhimurium and E. coli. As for the experimental part: The monospecies and mixed-species biofilms were grown on petri dishes for 48 h at 25° C. as described above. The medium was then replaced by 5 ml PBS with either 0.25% H2O2 or 1 μM ciprofloxacin and the biofilms were incubated for an additional 1 h at 25° C. Subsequently, the biofilms were scraped off and plated out on solid LB agar plates for CFU determination. To differentiate between the strains, S1 was labelled with constitutive gfpmut3 on a plasmid, while S2 and E1 were labelled with plasmid-encoded constitutive dsRed.T4. Differences in colony shape and size allowed differentiation between S2 and E1 during CFU counting.

Setting [8] is: comparison of effective concentrations.

As to `CCCCCCCCCCCCCCCCC(C(=O)O)C(O)(CC(=O)O)C(=O)O` (stereo not drawn) [Agaric acid, 2-hydroxynonadecane-1,2,3-tricarboxylic acid], the “number of cells (CFU) attaching to bottom of glass petri dish” value in test [1] is given as “significantly inhibits the number of Salmonella cells attaching to the surface”. The “swimming motility (halo formation)” value is reported as “no halo was formed” in test [2] and “almost completely inhibited motility” in test [2] (listed as agaric acid). Further, the “planktonic growth (OD600)” value in test [3] is given as “unaffected, except for an increase at the highest concentration”; in test [4], “inhibits”; in test [5] it was “inhibits”. Also, the “concentration at which significant biofilm inhibition already occurred” value in test [3] (crystal violet staining) came out at 12.5 µM. In addition, the “biofilm inhibition versus planktonic growth inhibition” value in test [4] (setting [8]) is on record as “planktonic growth is reduced at lower concentrations than biofilm inhibition”. The biofilm formation entry in test [4] (crystal violet staining) is listed as “inhibits”; in test [5] (crystal violet staining, undiluted TSB, 37° C., 48 h) it was “inhibits”. Further, the “biofilm inhibition versus planktonic growth inhibition at high concentrations” value in test [4] (high concentrations of agaric acid) is on record as “biofilm formation is inhibited to a higher extent than planktonic growth”. For the same compound, in test [5] (setting [8]), the “biofilm inhibition versus bactericidal effect” value is recorded as “biofilm inhibition occurred already at a lower concentration than the bactericidal effect”. The “competition experienced by S1 in presence of S2 and E1” value in test [6] is given as “weakens the competition experienced by S1”. Moreover, the “biofilm formation of S2 strain in the mixed-species community” value in test [6] (100 μM) is “significantly inhibited”. The “number of biofilm cells of mixed-species consortium attached to abiotic surface” value in test [6] (S1, S2 and E1 1:1:1, 48 h, 25° C.) is recorded as “significantly reduced the number of biofilm cells”. In addition, the “enhanced tolerance of S1 in mixed-species conditions” value in test [7] (0.25% H2O2 or 1 μM ciprofloxacin, 1 h) was “completely abolished the enhanced tolerance of S1”. Also, the “number of S1 cells surviving antimicrobial treatment in mixed-species communities” value in test [7] (in presence of agaric acid) is “lowest number of S1 cells surviving antimicrobial treatment”. In addition, in test [7] (preventive treatment, 0.25% H2O2 or 1 μM ciprofloxacin, 1 h), the “tolerance of remaining biofilm cells towards ciprofloxacin and H2O2” value is reported as “reduced the tolerance of the remaining biofilm cells”.
